Reference: ChEMBL document CHEMBL1938230, “6-Position optimization of tricyclic 4-quinolone-based inhibitors of glycogen synthase kinase-3β: discovery of nitrile derivatives with picomolar potency” (Bioorg Med Chem Lett, 2012)

Key:
HL-60 [1] = assay: Inhibition of human PITSLRE in HL-60 cells lysate assessed as reduction of labeling of acyl-phosphate ATP probe at 100 nM
[2] = molecular target: T1, Phosphatidylinositol 5-phosphate 4-kinase type-2 beta (Homo sapiens) (UniProt P78356); assay: Inhibition of human PIP4K2B in HL-60 cells lysate assessed as reduction of labeling of acyl-phosphate ATP probe at 100 nM; type: cell-free
T1 sequence (whole entry): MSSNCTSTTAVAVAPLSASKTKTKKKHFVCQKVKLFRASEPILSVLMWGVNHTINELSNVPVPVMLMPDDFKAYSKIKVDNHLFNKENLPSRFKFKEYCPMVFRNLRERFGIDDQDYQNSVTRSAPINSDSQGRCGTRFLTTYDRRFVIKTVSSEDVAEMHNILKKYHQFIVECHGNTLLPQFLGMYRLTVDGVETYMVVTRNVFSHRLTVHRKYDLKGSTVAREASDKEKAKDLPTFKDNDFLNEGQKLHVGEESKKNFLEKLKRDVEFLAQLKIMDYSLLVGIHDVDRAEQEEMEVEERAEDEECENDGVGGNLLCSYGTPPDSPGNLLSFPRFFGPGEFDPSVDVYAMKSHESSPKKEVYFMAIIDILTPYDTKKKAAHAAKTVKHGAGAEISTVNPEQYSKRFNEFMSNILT

HL-60 [3] = assay: Inhibition of human AurA/AurB/AurC in HL-60 cells lysate assessed as reduction of labeling of acyl-phosphate ATP probe at 100 nM
[4] = molecular target: Calcium/calmodulin-dependent protein kinase kinase 2 (Homo sapiens) (UniProt Q96RR4); assay: Inhibition of human CaMKK2 in HL-60 cells lysate assessed as reduction of labeling of acyl-phosphate ATP probe at 100 nM; type: cell-free
[5] = molecular target: eIF-2-alpha kinase GCN2 (Homo sapiens) (UniProt Q9P2K8); assay: Inhibition of human GCN2 domain2 in HL-60 cells lysate assessed as reduction of labeling of acyl-phosphate ATP probe at 100 nM; type: cell-free
Chain of eIF-2-alpha kinase GCN2 (Homo sapiens) (Q9P2K8 whole entry, the tested form may be a part): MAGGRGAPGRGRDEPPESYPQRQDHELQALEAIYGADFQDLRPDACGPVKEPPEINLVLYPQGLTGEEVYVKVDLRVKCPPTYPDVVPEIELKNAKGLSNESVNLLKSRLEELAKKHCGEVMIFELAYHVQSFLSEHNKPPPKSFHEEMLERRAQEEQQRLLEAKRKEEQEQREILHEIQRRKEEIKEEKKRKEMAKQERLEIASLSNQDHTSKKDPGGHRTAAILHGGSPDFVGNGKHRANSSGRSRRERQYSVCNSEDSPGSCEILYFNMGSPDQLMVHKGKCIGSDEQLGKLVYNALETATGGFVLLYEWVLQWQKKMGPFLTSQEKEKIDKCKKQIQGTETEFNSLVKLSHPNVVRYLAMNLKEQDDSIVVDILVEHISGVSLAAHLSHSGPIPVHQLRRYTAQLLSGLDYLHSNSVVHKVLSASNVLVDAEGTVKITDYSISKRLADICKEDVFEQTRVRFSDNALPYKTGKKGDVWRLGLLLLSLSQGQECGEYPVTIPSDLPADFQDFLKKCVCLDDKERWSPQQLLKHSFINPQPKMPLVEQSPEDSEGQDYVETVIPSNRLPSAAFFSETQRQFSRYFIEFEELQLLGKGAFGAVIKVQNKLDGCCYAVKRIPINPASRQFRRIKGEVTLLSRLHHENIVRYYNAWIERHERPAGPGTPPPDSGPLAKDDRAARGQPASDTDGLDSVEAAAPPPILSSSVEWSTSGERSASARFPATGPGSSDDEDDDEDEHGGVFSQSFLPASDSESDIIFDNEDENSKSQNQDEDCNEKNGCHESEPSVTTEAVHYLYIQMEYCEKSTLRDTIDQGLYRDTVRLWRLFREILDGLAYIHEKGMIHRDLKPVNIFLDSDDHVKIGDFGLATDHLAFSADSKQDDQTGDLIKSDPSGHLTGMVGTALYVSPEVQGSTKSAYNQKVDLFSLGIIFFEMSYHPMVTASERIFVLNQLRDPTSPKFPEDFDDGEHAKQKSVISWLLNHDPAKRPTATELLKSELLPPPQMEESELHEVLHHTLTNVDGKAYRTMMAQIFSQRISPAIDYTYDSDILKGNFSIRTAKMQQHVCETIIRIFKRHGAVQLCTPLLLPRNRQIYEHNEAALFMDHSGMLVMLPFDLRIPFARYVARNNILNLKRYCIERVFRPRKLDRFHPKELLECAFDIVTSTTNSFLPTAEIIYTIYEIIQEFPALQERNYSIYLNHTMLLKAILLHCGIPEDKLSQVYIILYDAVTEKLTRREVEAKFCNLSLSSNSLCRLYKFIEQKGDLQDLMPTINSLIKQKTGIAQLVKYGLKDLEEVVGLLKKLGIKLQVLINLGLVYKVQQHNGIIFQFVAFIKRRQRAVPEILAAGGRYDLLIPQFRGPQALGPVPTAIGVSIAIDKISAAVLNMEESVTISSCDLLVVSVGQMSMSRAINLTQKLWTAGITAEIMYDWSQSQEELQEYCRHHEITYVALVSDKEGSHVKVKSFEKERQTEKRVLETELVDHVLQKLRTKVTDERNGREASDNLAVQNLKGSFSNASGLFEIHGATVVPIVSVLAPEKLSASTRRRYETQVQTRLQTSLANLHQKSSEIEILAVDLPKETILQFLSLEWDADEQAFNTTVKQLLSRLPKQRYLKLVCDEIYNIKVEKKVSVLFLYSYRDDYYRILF

[6] = molecular target: Serine/threonine-protein kinase/endoribonuclease IRE1 (Homo sapiens) (UniProt O75460); assay: Inhibition of human IRE1 in HL-60 cells lysate assessed as reduction of labeling of acyl-phosphate ATP probe at 100 nM; type: cell-free
Chain of Serine/threonine-protein kinase/endoribonuclease IRE1 (Homo sapiens) (O75460 19-977 limits assumed): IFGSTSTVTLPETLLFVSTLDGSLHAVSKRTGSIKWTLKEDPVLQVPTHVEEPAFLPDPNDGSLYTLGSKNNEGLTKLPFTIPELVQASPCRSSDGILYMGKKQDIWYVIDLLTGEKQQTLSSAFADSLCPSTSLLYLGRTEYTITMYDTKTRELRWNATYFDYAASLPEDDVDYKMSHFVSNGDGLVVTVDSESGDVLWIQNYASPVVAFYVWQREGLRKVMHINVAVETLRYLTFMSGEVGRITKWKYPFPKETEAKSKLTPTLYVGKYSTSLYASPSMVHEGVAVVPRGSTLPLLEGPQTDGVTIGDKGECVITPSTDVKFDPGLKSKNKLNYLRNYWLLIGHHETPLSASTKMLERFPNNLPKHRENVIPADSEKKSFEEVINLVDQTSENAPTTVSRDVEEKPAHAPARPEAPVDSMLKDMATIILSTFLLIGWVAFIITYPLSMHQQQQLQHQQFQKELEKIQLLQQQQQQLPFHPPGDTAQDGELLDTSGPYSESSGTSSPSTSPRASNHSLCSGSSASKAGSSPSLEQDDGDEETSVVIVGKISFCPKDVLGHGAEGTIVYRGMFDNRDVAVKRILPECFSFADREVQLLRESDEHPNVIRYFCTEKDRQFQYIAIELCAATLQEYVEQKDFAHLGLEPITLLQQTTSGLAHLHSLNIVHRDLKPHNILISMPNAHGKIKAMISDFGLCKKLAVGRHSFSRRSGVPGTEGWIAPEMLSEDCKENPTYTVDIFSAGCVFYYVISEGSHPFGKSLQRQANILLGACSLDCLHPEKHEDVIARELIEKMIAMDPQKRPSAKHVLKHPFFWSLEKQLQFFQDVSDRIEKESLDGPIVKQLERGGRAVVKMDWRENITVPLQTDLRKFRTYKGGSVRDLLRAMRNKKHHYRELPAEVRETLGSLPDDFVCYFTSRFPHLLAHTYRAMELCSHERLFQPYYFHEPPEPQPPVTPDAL

[7] = molecular target: T2, EKC/KEOPS complex subunit TP53RK (Homo sapiens) (UniProt Q96S44); assay: Inhibition of human PRPK in HL-60 cells lysate assessed as reduction of labeling of acyl-phosphate ATP probe at 100 nM; type: cell-free
T2 sequence (whole entry): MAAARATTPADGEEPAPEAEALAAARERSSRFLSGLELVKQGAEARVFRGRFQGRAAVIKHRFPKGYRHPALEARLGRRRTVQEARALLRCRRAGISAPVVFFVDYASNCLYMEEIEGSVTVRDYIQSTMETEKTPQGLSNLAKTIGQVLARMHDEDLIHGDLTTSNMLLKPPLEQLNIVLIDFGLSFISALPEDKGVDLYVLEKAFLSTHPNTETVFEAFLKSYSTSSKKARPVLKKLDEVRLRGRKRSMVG

[8] = molecular target: T3, Serine/threonine-protein kinase tousled-like 1 (Homo sapiens) (UniProt Q9UKI8); assay: Inhibition of human TLK1 in HL-60 cells lysate assessed as reduction of labeling of acyl-phosphate ATP probe at 100 nM; type: cell-free
T3 sequence (whole entry): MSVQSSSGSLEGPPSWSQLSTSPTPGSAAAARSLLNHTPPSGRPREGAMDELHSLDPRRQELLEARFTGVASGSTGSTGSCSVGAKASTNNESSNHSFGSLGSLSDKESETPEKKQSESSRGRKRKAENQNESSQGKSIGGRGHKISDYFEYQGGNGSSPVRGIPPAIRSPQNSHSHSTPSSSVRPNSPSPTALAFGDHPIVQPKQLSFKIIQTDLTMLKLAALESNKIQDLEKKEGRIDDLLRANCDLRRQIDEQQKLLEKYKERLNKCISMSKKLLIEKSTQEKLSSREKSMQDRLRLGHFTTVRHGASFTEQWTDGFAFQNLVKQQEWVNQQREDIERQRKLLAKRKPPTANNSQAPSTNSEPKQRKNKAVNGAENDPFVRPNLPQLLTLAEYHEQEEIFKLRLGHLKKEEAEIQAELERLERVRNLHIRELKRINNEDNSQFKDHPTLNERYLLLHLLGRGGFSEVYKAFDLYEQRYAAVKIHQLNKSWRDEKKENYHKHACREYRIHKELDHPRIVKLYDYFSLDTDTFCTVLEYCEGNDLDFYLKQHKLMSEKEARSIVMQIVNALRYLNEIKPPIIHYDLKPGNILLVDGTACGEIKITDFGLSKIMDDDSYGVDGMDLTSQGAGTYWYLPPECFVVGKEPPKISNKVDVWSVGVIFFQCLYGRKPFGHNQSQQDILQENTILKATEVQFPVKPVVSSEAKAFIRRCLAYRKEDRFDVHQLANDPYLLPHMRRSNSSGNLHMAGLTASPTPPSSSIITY

HL-60 [9] = assay: Inhibition of human Wnk1/Wnk2/Wnk3 in HL-60 cells lysate assessed as reduction of labeling of acyl-phosphate ATP probe at 100 nM
[10] = molecular target: Dual specificity mitogen-activated protein kinase kinase 1 (Homo sapiens) (UniProt Q02750); assay: Inhibition of human MAP2K1 in HL-60 cells lysate assessed as reduction of labeling of acyl-phosphate ATP probe at 100 nM; type: cell-free
Chain of Dual specificity mitogen-activated protein kinase kinase 1 (Homo sapiens) (Q02750 whole entry): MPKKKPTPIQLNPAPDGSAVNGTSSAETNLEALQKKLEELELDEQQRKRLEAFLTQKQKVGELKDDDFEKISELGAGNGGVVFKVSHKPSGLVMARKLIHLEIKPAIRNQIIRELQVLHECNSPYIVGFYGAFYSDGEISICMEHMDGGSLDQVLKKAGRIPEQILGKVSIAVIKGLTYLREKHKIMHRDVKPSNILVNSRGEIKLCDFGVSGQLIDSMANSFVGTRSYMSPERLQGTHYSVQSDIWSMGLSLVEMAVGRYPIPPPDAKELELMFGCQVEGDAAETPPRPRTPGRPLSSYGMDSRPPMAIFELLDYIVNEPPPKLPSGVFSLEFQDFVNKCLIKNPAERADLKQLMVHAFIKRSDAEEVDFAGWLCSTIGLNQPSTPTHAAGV

[11] = molecular target: Serine/threonine-protein kinase 24 (Homo sapiens) (UniProt Q9Y6E0); assay: Inhibition of human MST3 in HL-60 cells lysate assessed as reduction of labeling of acyl-phosphate ATP probe at 100 nM; type: cell-free
Chain of Serine/threonine-protein kinase 24 (Homo sapiens) (Q9Y6E0 whole entry, looked up): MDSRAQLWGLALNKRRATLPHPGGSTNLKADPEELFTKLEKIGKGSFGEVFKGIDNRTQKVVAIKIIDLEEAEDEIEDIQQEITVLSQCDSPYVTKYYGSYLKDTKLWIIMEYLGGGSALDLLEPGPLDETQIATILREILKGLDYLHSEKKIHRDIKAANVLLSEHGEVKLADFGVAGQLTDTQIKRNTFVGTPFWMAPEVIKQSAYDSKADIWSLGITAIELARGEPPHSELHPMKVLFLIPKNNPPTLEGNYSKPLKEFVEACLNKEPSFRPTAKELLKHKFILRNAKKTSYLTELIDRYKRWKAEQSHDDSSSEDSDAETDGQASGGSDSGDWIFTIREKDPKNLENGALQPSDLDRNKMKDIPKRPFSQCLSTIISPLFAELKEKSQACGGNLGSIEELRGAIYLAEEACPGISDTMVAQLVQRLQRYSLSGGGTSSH

[12] = molecular target: Serine/threonine-protein kinase PAK 2 (Homo sapiens) (UniProt Q13177); assay: Inhibition of human PAK2 in HL-60 cells lysate assessed as reduction of labeling of acyl-phosphate ATP probe at 100 nM; type: cell-free
Chain of Serine/threonine-protein kinase PAK 2 (Homo sapiens) (Q13177 whole entry): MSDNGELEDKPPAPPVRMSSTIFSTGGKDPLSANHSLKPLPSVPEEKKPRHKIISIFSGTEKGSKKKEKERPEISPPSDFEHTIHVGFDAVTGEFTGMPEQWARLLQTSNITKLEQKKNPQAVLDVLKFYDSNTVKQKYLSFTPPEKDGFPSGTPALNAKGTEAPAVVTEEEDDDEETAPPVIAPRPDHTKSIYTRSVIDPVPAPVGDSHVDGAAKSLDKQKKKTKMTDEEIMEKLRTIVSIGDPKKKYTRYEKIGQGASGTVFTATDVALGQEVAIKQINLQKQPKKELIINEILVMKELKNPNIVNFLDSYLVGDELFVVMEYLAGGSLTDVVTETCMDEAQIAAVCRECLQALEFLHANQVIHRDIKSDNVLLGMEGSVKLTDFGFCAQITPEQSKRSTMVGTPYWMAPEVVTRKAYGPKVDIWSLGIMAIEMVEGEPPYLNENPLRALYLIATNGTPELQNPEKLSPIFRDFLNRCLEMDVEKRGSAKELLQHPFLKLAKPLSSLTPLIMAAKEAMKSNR

[13] = molecular target: Tyrosine-protein kinase Lyn (Homo sapiens) (UniProt P07948); assay: Inhibition of human LYN in HL-60 cells lysate assessed as reduction of labeling of acyl-phosphate ATP probe at 100 nM; type: cell-free
Chain of Tyrosine-protein kinase Lyn (Homo sapiens) (P07948 2-512 limits assumed): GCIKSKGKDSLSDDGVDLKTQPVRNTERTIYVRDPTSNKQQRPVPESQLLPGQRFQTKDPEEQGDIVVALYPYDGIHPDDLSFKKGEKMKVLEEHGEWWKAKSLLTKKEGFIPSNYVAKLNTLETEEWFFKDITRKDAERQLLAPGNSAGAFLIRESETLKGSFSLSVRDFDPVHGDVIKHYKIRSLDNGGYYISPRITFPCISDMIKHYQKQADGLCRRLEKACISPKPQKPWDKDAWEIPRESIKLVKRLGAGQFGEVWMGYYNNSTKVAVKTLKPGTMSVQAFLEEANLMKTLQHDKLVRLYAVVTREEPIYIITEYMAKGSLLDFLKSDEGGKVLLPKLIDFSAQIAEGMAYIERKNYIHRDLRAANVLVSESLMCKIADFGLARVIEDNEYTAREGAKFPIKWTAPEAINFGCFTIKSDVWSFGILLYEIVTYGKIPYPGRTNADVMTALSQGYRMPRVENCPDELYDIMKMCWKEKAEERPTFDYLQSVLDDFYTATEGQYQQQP

HL-60 [14] = assay: Inhibition of human KSR1/KSR2 in HL-60 cells lysate assessed as reduction of labeling of acyl-phosphate ATP probe at 100 nM
[15] = molecular target: Glycogen synthase kinase-3 beta (Homo sapiens, UniProt P49841); assay: Inhibition of GSK3-beta
Chain of Glycogen synthase kinase-3 beta (P49841 whole entry): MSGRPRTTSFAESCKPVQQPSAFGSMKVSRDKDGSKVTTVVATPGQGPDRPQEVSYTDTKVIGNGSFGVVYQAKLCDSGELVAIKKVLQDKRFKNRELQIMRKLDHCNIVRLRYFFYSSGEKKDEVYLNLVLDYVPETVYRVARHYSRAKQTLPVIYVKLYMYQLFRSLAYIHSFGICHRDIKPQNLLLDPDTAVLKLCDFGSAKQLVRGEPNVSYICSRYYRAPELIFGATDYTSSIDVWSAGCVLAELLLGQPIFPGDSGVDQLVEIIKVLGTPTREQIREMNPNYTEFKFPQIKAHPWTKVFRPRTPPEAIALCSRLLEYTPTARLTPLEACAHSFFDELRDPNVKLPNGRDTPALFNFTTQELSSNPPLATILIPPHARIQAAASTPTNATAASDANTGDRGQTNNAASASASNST

[16] = molecular target: Mitogen-activated protein kinase 3 (Homo sapiens) (UniProt P27361); assay: Inhibition of human Erk1 in HL-60 cells lysate assessed as reduction of labeling of acyl-phosphate ATP probe at 100 nM; type: cell-free
[17] = molecular target: c-Jun N-terminal kinase, JNK (Homo sapiens) (UniProt P45983+P53779+P45984); assay: Inhibition of human JNK1/JNK2/JNK3 in HL-60 cells lysate assessed as reduction of labeling of acyl-phosphate ATP probe at 100 nM; type: cell-free
HL-60 [18] = assay: Inhibition of human P38delta/P38gamma in HL-60 cells lysate assessed as reduction of labeling of acyl-phosphate ATP probe at 100 nM

Compound	inhibition at 0.1 µM (HL-60 [1]) [%]	inhibition [2] [%]	inhibition at 0.1 µM (HL-60 [3]) [%]	inhibition [4] [%]	inhibition [5] [%]	inhibition [6] [%]	inhibition [7] [%]	inhibition [8] [%]	inhibition at 0.1 µM (HL-60 [9]) [%]	inhibition [10] [%]	inhibition [11] [%]	inhibition [12] [%]	inhibition [13] [%]	inhibition at 0.1 µM (HL-60 [14]) [%]	IC50 [15] [nM]	inhibition [16] [%]	inhibition [17] [%]	inhibition at 0.1 µM (HL-60 [18]) [%]
C[C@H]1COc2c(NCCCn3cccn3)c(F)c(N)c3c(=O)c(C#N)cn1c23	< 35	< 35	< 35	< 35	< 35	< 35	< 35	< 35	< 35	< 35	< 35	< 35	< 35	< 35	0.86	< 35	< 35	< 35
C[C@H]1COc2c(NCCCc3ccccn3)c(F)c(N)c3c(=O)c(C#N)cn1c23	< 35	< 35	< 35	< 35	< 35	< 35	< 35	< 35	< 35	< 35	< 35	< 35	< 35	< 35	0.6	< 35	< 35	< 35
C[C@H]1COc2c(NCCCn3cccn3)c(F)c(N)c3c(=O)c(C(=O)O)cn1c23	< 35	< 35	< 35	< 35	< 35	< 35	< 35	< 35	< 35	< 35	< 35	< 35	< 35	< 35	16	< 35	< 35	< 35
C[C@H]1COc2c(NCCCc3ccccn3)c(F)c(N)c3c(=O)c(C(=O)O)cn1c23	< 35	< 35	< 35	< 35	< 35	< 35	< 35	< 35	< 35	< 35	< 35	< 35	< 35	< 35	10	< 35	< 35	< 35
